Assay results published in publication PMC5349917, “Octreotide-periplocymarin conjugate prodrug for improving targetability and anti-tumor efficiency: synthesis, in vitro and in vivo evaluation” (Oncotarget, 2016).
pIC50: −log10 of the molar value. Several values for one entry are separate records, joined by “and”; a condition that tells them apart may be missing. Equal values may be shown once. Read-outs that look alike come from different tables or passages of the source.

How the values were obtained:
[1] = test system: HepG2 hepatoma cells; test: MTT growth inhibition assay, HepG2 cells; assay type: cell-based, human
Method: (§1) To test the antitumor activities of the synthesized compounds, we evaluated antiproliferative activities of these compounds against human cancer cell lines (Breast cancer cells, MCF-7; Hepatoma cells, HepG2) and human normal cell line (Liver cells, L-02), using the MTT assay as reported in previous studies. Both cell lines were obtained from the Cell Bank of Academy of Science (Shanghai, China).
(§2) After incubation, 20 μL of MTT (5 mg/mL in pH 7.4 PBS) was added to each well, and the plates further incubated at 37°C for 4 h. The medium was then replaced with 100 μL DMSO. The optical density was measured by Microplate Reader (Thermo Electron Corporation) at 595 nm.
(§3) Statistical significance of differences between treatment groups in the biodistribution and anti-tumor effect were assessed using an unpaired Student’s t-test. A p-value of less than 0.05 was considered significant.

[2] = Toxicity in H22 tumor-bearing mice (serum AST, ALT, ALP, body weight, heart and liver histopathology); assay type: in vivo, mouse; conditions: for pathological images of heart sections / pathological images of liver sections: HE staining, after treatment for ten days; for ALT / AST / ALP: serum, mice sacrificed 24 h after the last administration; for ALT: control 26.86 ± 6.44; for AST: control 50.55 ± 8.82; for ALP: control 112.06 ± 14.29
Method: (§4) Treatment was initiated when the tumor diameter reached about 0.5 cm (around 3 days). Mice were randomly assigned to four groups (n = 6) namely the control, PPM, OCT and OCT(Phe)-S-PPM groups. Treatment were administered via tail vein at a dose of 4 mg/kg every other day during the experimental period for 5 times. The control group received corresponding amounts of blank injection (ethanol/Cremophor EL, v/v, 1/1, diluted 20 times with normal saline before the injection). Their weights were measured daily and tumor size was measured (major and minor axis) with a vernier caliper thereafter and at the end of the experiment. Tumor volumes were calculated using the formula: a^2×b×0.52, where a and b refer to the longest and shortest diameter, respectively. Tumor tissues were removed from the sacrificed mice and weighed to calculate the tumor inhibition rate (TIR (%) = (1-Wt/Wc) × 100%, where Wt and Wc are the mean tumor weights of the treated groups and the negative control group, respectively. Moreover, the heart, liver and tumor were rinsed with normal saline, fixed in 10% formalin, and then embedded in paraffin blocks for later slicing and staining with hematoxylin and eosin (H&E). Finally, the sections were observed under a microscope for histopathological evaluations

[3] = Tissue distribution in H22 cell tumor bearing mice; assay type: in vivo, mouse; conditions: for AUC0–t Heart / AUC0–t Kidney / AUC0–t Liver / AUC0–t Lung / AUC0–t Plasma / AUC0–t Spleen / AUC0–t Tumor: level of PPM, 4 mg/kg (PPM or equivalent), H22 tumor-bearing mice, 0-4 h
Method: Male Kunming strain mice (KM, 18–22 g) were purchased from Qinglongshan, Experimental Animal Center (ZhenJiang, China). Animal experiments were conducted under principles of good laboratory animal care, and approved by the Ethical Committee for Laboratory Animals Care and Use of Jiangsu University. Mouse […] (H22) cells were purchased from the Cell Bank of Academy of Science (Shanghai, China).
Approximately 1 × 10^7 H22 cells suspended in PBS (pH 7.4) were inoculated subcutaneously into the right hind leg. When the tumor volume reached 1000 mm^3 (around 7 days), mice were intravenously injected with PPM (at a dose of 4 mg/kg) or its equivalent OCT(Phe)-S-PPM via the tail vein (n = 5). At indicated time periods (0.16, 0.50, 1, 2, 3 and 4 h) after injection, blood samples were collected and mice were then sacrificed by cervical dislocation to obtain the heart, liver, spleen, lung, kidney and tumor tissues. All the samples were then washed with ice-cold saline to remove the excess fluid, weighed and stored at –20°C. The thawed tissue was homogenized in 0.9% sodium chloride solution to obtain 0.2 g/mL tissues homogenate. This was followed by the addition of bufalin (50 μl, 5 μg/ml) to the tissues (0.2 ml) with uniform mixing. Ethyl acetate (1.2 ml) was then added to the resulting mixture and thoroughly mixed for 5 min. The total supernatant or organic layer was separated by centrifugation at 3000 rpm for 10 min and transferred to a clean tube. The supernatant was dried with nitrogen at 40°C on water bath to obtain the residue, which was later reconstituted in a 0.2 mL of mobile phase solution. After centrifugation at 20,000 rpm for 10 min, the supernatant was analyzed by HPLC. The mobile phase consisted of acetonitrile and water (38:62, v/v, pH = 3.0, adjusted by H3PO4). The flow rate was 1.0 mL·min^-1 and the detection wavelength was 220 nm. Other conditions included injection volume (20 μl), column temperature (25°C) and detection sensitivity (0.02 AUFS). The retention time of PPM and Bufalin was about 7.2 and 10.8 min, respectively. The calibration curve was A = 0.9958C-0.0299 (A represented the peak area ratio of PPM and Bufalin, while C was the concentration of PPM) and was linear in the range of 0.05–10 μg/mL with a correlation coefficient of R = 0.9995.

[4] = test system: H22 tumor; test: Anti-tumor efficacy in H22 tumor-bearing mice; assay type: in vivo, mouse; conditions: H22 tumor Kunming mice, 5 times; for final tumor weight: control 0.876 ± 0.154 g
Method: as §4

[5] = test system: MCF-7 breast cancer cells; test: MTT growth inhibition assay, MCF-7 cells; assay type: cell-based, human
Method: as §1, §2, §3

[6] = test system: L-02 cells; test: cells; assay type: cell-based, human
Method: as §1
(§5) In brief, the cells were seeded into a 96-well plate at a density of 2.5 × 10^4 cells/well and incubated with OCT modified PPMs containing various concentrations (ranging from 0.001 to 50.0 μM) for 72 h. After incubation, 20 μL of MTT (5 mg/mL in pH 7.4 PBS) was added to each well, and the plates further incubated at 37°C for 4 h. The medium was then replaced with 100 μL DMSO. The optical density was measured by Microplate Reader (Thermo Electron Corporation) at 595 nm. The cell inhibition rate (IR) was calculated as follows: IR (%) = 1−A/A1×100%, where A refers to the average absorbance intensity of treated group and A1 refers to average absorbance intensity of untreated control group (the vehicle control group).
(§6) Statistical significance of differences between treatment groups in the biodistribution and anti-tumor effect were assessed using an unpaired Student’s t-test. A p-value of less than 0.05 was considered significant. 50% inhibiting concentration (IC50) of the sample was calculated with the aid of Curve-Expert software (version 1.3; Daniel G. Hyams, Hixson, TN, USA).

[7] = cited from earlier work
[8] = test system: MFC murine gastric carcinoma cells; test: In vitro cytotoxicity on MFC cells; assay type: cell-based, mouse; conditions: 72 h of incubation
Method: as §5, §6

[9] = test system: PC3, U937, HCT-8, Bel-7402, BGC823, A549 and A2780 cell lines; design: method as in PMID 17366373; conditions: PC3, U937, HCT-8, Bel-7402, BGC823, A549 and A2780 cell lines in vitro; read-out: IC50 values, inhibition of proliferation; cited from earlier work
[10] = MTT, 72 h of incubation, read-out: IC50 MCF-7

Compound | pathological images of heart sections [2] | pathological images of liver sections [2] | ALT [2] [U/L] | AST [2] [U/L] | ALP [2] [U/L] | AUC0–t Heart ([3]; i.v.) [µg·h/g] | AUC0–t Kidney ([3]; i.v.) [µg·h/g] | AUC0–t Liver ([3]; i.v.) [µg·h/g] | AUC0–t Lung ([3]; i.v.) [µg·h/g] | AUC0–t Plasma ([3]; i.v.) [µg·h/g] | AUC0–t Spleen ([3]; i.v.) [µg·h/g] | AUC0–t Tumor ([3]; i.v., 4 mg/kg) | final tumor weight ([4]; 4 mg/kg i.v. every other day) [g] | pIC50 [5, 10] | also measured
CO[C@H]1C[C@H](O[C@H]2CC[C@]3(C)[C@H]4CC[C@]5(C)[C@@H](C6=CC(=O)OC6)CC[C@]5(O)[C@@H]4CC[C@]3(O)C2)O[C@H](C)[C@H]1OC(=O)CCC(=O)N[C@H](Cc1ccccc1)C(=O)N[C@H]1CSSC[C@@H](C(=O)N[C@H](CO)[C@@H](C)O)NC(=O)[C@H]([C@@H](C)O)NC(=O)[C@H](CCCCN)NC(=O)[C@@H](Cc2c[nH]c3ccccc23)NC(=O)[C@H](Cc2ccccc2)NC1=O [OCT(Phe)-S-PPM] | no evident differences from the control group | no evident differences from the control group | 23.25 ±5.76 | 56.83 ± 7.34 | 124.90 ± 27.23 | 1.315 ± 0.239 | 1.152 ± 0.132 | 1.441 ± 0.202 | 0.839 ± 0.083 | 1.409 ± 0.196 | 0.632 ± 0.079 | 1.338 µg·h/g and 1.338 ± 0.195 µg·h/g | 0.287 ± 0.069 | – | enhancement of cytotoxicity of PPM when conjugated with Phe-OCT ([1]; HepG2, vs PPM): 1.88 fold; concentration in tumor tissue ([3]; 15 min post injection, i.v.): 0.168 µg/g; maximum concentration in tumor tissue ([3]; i.v., reached at 1 h): 0.618 µg/g; AUC0–t in plasma, fold higher than that of PPM ([3]; i.v., vs PPM): 1.73 fold; AUC0–t in tumor, fold higher than that of PPM ([3]; i.v., vs PPM): 2.17 fold; total AUC0~t of heart, fold lower than that of PPM ([3]; i.v., vs PPM, P < 0.01): 0.77 fold; total AUC0~t of liver, fold lower than that of PPM ([3]; i.v., vs PPM, P < 0.01): 0.73 fold; reduction of tumor volume compared to PPM (average) ([4]; equimolar dose of PPM 4 mg/kg, i.v. every other day): 1.56 fold
C[C@@H](O)[C@@H]1NC(=O)[C@H](CCCCN)NC(=O)[C@@H](Cc2c[nH]c3ccccc23)NC(=O)[C@H](Cc2ccccc2)NC(=O)[C@@H](NC(=O)[C@H](N)Cc2ccccc2)CSSC[C@@H](C(=O)N[C@H](CO)[C@@H](C)O)NC1=O [OCT, Octreotide] | – | – | 34.48 ± 6.28 | 51.25 ± 5.2 | 129.48 ± 18.54 | – | – | – | – | – | – | – | 0.765 ± 0.126 | – | pIC50 ([1]; 72 h): < 4.30; pIC50 ([5]; 72 h): < 4.30; pIC50 ([6]; 72 h): < 4.30; plasma half-life, times more than endogenous somatostatin [7]: 30 times
CO[C@H]1C[C@H](O[C@H]2CC[C@]3(C)[C@H]4CC[C@]5(C)[C@@H](C6=CC(=O)OC6)CC[C@]5(O)[C@@H]4CC[C@]3(O)C2)O[C@H](C)[C@H]1O [PPM, periplocymarin] | irregularly arranged myocardial cells and slightly lymphocyte infiltration in the interstitial tissue of the myocardium | obvious soma shrinking, dissociation of hepatic cord, dilation of hepatic sinusoids and lymphocytosis | 62.43 ± 13.52 | 68.21 ± 8.95 | 184.23 ± 21.48 | 1.692 ± 0.283 | 1.773 ± 0.393 | 1.967 ± 0.321 | 0.457 ± 0.092 | 0.812 ± 0.143 | 0.257 ± 0.086 | 0.614 µg·h/g and 0.614 ± 0.128 µg·h/g | 0.423 ± 0.087 | 7.44 | pIC50 ([1]; Homo sapiens, HepG2, MTT, 72 h of incubation, read-out: IC50 HepG2): 6.86; pIC50 ([5]; Homo sapiens, MCF7, 72 h, MTT, 72 h of incubation, read-out: IC50 MCF-7): 7.44; average body weight ([2]; during treatment, vs control group, P < 0.01): less than that of the control group; pIC50 ([8]; Mus musculus): 7.42; pIC50 ([6]; Homo sapiens, L02, MTT, 72 h of incubation, read-out: IC50 L-02): 6.89; pIC50 [9]: 6.54 to 7.70; Kp at 15 min ([3]; male, Kunming, mouse, heart / blood, iv, 15 min post injection, i.v. 4 mg/kg, read-out: ratio of the PPM concentration in heart and blood): 1.18; Kp at 1 h ([3]; male, Kunming, mouse, heart / blood, iv, 1 h post injection, i.v. 4 mg/kg, read-out: ratio of the PPM concentration in heart and blood): 5.21; concentration at 15 min ([3]; male, Kunming, mouse, tumor, iv, 4 mg/kg, 15 min post injection): 917 ng/g; tumor inhibition rate ([4]; 4 mg/kg i.v. every other day, from tumor weights): 51.71%
C[C@]12CC[C@H](O)C[C@@]1(O)CC[C@@H]1[C@@H]2CC[C@]2(C)[C@@H](C3=CC(=O)OC3)CC[C@]12O [periplogenin] | – | – | – | – | – | – | – | – | – | – | – | – | – | 6.05 | pIC50 ([1]; MTT, 72 h of incubation, read-out: IC50 HepG2): 6.24; pIC50 [8]: 6.29; pIC50 ([6]; MTT, 72 h of incubation, read-out: IC50 L-02): 6.39
Somatostatin [somatostatins] | – | – | – | – | – | – | – | – | – | – | – | – | – | – | half-life in circulation ([7]; in vivo): 1 to 3 min
